Experimental data taken from patent publication US10632202B2, “Preservative containing compositions” (JOHNSON & JOHNSON CONSUMER INC., priority 2016, dated 2020).

tested on: fungi; assay: Observed contribution of nutrients to antifungal activity; type: cell-based; conditions: nutrient of the antimicrobial mixture

**Q.** `O=C1O[C@H]([C@@H](O)CO)C(O)=C1O` [ascorbic acid] was tested. Which “contribution to the antifungal activity of the antimicrobial mixture” value (“contribution to the antifungal activity” below) did it give?
**A.** contribute minimally

**Q.** For `O=C(O)CC(O)(CC(=O)O)C(=O)O` [citrate], which “contribution to the antifungal activity” value is on record?
**A.** contribute minimally

**Q.** Which “contribution to the antifungal activity” value does the source give for `NCC(=O)O` [glycine] here?
**A.** contribute minimally

**Q.** How did the “contribution to the antifungal activity” value turn out when `CC(O)C(=O)O` (stereo not shown) [lactate] was run?
**A.** follows the glucose with regard to the significance of its contribution
